Results: article PMC4424277, “Astrocytosis precedes amyloid plaque deposition in Alzheimer APPswe transgenic mouse brain: a correlative positron emission tomography and in vitro imaging study” (European Journal of Nuclear Medicine and Molecular Imaging, 2015)

Target: T1, beta-amyloid (Aβ) (Homo sapiens, UniProt P05067)
T1 construct: gene APP; Aβ plaques (fibrillar deposits) in cortical homogenates of APPswe (Tg2576) mice expressing APP with the Swedish mutation
Assay: radioligand saturation binding in APPswe mouse cortical homogenates; autoradiography

T1 sequence (P05067 18-770): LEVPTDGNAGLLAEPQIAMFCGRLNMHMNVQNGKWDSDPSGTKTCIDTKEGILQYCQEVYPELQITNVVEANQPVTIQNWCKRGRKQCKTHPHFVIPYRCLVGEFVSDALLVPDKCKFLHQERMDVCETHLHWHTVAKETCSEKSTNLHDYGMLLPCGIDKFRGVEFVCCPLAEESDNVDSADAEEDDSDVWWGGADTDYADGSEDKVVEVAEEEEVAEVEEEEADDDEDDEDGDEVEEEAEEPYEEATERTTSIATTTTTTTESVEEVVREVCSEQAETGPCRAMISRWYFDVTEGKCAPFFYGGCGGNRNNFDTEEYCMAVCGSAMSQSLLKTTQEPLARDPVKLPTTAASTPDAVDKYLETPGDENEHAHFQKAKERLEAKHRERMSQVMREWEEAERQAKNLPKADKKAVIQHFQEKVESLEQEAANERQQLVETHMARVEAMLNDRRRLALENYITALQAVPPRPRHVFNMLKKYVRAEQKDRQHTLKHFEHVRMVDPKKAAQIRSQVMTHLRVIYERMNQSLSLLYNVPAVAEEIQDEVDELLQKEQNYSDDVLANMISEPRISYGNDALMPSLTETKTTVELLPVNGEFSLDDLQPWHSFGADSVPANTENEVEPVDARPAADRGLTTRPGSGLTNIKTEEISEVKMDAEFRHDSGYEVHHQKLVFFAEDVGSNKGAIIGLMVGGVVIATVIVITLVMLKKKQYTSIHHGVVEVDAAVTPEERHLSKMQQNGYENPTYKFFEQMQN

Kd: 10.6 nM
Compound: CNc1ccc(-c2nc3ccc(O)cc3s2)cn1 [AZD2184]
